According to patent publication US9102688B2, “Sulfonaminoquinoline hepcidin antagonists” (Vifor (International) AG, priority 2011, dated 2015):

Target: T1, human ferroportin (Homo sapiens, UniProt Q9NP59)
T1 construct: expressed in transfected cells
T1 sequence (Q9NP59 1-571): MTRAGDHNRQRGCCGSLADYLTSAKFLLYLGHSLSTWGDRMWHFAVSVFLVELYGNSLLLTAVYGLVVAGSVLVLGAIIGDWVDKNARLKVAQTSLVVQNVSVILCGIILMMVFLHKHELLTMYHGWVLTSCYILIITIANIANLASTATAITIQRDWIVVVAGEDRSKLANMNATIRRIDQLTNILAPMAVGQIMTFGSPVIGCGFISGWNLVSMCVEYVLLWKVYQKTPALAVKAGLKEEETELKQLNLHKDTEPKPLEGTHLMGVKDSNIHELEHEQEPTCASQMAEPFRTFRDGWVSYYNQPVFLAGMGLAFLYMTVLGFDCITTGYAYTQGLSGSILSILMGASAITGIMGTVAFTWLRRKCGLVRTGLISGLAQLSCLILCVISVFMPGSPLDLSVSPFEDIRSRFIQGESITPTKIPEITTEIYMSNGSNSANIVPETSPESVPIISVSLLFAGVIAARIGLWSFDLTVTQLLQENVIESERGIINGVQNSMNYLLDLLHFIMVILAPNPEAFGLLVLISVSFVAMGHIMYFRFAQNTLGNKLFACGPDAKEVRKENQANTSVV
Experiment: ferroportin internalization assay (inhibition of hepcidin-induced internalization of Fpn)
Assay type: cell-based
Details: MDCK-FPN-HaloTag cells, 100 nM hepcidin, overnight incubation; concentration range from 0.04 to 40 μM
Procedure: The hepcidin-antagonistic action of the sulfonaminoquinoline compounds of the present invention was determined by means of the “ferroportin internalization assay” described in the following.
Organic compounds of low molecular weight which counteract the biological actions of hepcidin on its receptor, the iron exporter ferroportin (Fpn), were identified on the basis of their ability to inhibit hepcidin-induced internalization of Fpn in living cells. For this purpose, a stable cell line (Madin-Darby canine kidney, MDCK) was produced which constitutively expresses human ferroportin fused recombinantly at its C terminus with a fluorescent reporter protein (HaloTag®, Promega Corp.). The internalization of Fpn was monitored by labelling these cells with fluorescent ligands (HaloTag®-TMR, tetramethylrhodamine) which join covalently on to the HaloTag reporter gene fused with the Fpn. […] Optimized image analysis algorithms were used to ascertain the cell surface and to quantify the corresponding membrane fluorescence associated with the Fpn-HaloTag fusion protein. This assay allows a quantitative image-based analysis in order to quickly evaluate compounds which can block hepcidin-induced internalization of Fpn. This assay is a direct in vitro pendant of the in vivo action mechanism proposed for medicament candidates and is therefore suitable as an initial assay with a high throughput for identifying compounds which counteract the action of hepcidin on its receptor ferroportin.
• 7,500 cells per well (MDCK-FPN-HaloTag) were transinoculated in 50 μl of DMEM medium (Dulbeccos Modified Eagle Medium with 10% foetal bovine serum (FBS), which contained 1% penicillin, 1% streptomycin and 450 μg/ml of G-418) in microtitre plates with 384 wells (384 Cell carrier plates, Perkin Elmer, cat. no. 6007430), followed by incubation overnight at 37° C./5% CO2. • The volume of the medium was reduced to 10 μl, and 10 μl of 5 μM HaloTag-TMR ligands (Promega, cat. no. G 8251) were added in DMEM medium in order to stain the Fpn-HaloTag fusion protein. • 15 min incubation at 37° C./5% CO2 • The HaloTag-TMR ligand was removed and the cells were washed with fresh DMEM medium and the volume was reduced to 20 μl of DMEM medium. • 3 μl per well of a solution of the test compound (dissolved DMSO) were added ([…]). • 7 μl of […] hepcidin (Peptides International, cat. no. PLP-4392-s, 100 μM stock solution diluted in water in DMEM medium) were added per well up to a final hepcidin concentration of 100 nM. • The cells were incubated overnight at 37° C./5% CO2. • The cells were fixed by adding paraformaldehyde (PFA, Electron Microscopy Sciences, cat. no. 15710-S) directly to the cells up to a final concentration of 4%, followed by incubation at room temperature for 15-20 minutes. • The PFA solution was removed and the cells were washed with PBS (phosphate-buffered saline solution), in each case 30 μl remaining in the plate. • 20 μl of Draq5 (Biostatus, cat. no. DR 51000) were added up to a final concentration of 2.5 μM in order to stain the cell nuclei, and the plates were sealed with a foil plate seal. • The plates were analysed with the Opera Plate Imager (Opera Confocal Plate Imager, Perkin Elmer) with 7 images per well; 440 ms exposure time per image, […] focal point height.

| IC50 | SMILES |
| --- | --- |
| 4.69 µM | CC1c2ccc3cccnc3c2NS(=O)(=O)N1C (centres unmarked) [Example 413, 1,2-Dimethyl-1,4-dihydro-2H-3-thia-2,4,5-triaza-phenanthrene 3,3-dioxide] |
| 79 µM | Cc1ccc(S(=O)(=O)Nc2c(Cl)cc(Cl)c3cccnc23)cc1 [Example 51, N-(5,7-Dichloro-quinolin-8-yl)-4-methyl-benzenesulfonamide] |
| 1.37 µM | CC(=O)Nc1ccccc1S(=O)(=O)Nc1cccc2cccnc12 [Example 50, N-[2-(Quinolin-8-ylsulfamoyl)-phenyl]-acetamide] |
| 13.4 µM | O=S1(=O)Nc2c(cc(Cl)c3cccnc23)-c2cc(NC(CO)CO)ccc21 [Example 512, 2-(12-Chloro-6,6-dioxo-5,6-dihydro-6λ*6*-thia-4,5-diaza-chrysen-9-ylamino)-propane-1,3-diol] |
| 1.2 µM | O=S(=O)(Nc1cccc2cccnc12)c1cccc(OC(F)(F)F)c1 [Example 38, N-Quinolin-8-yl-3-trifluoromethoxy-benzenesulfonamide] |
| 5.43 µM | CN1C(c2ccc(F)c(C(=O)O)c2)c2ccc3cccnc3c2NS1(=O)=O (centres unmarked) [Example 424, 2-Fluoro-5-(2-methyl-3,3-dioxo-1,2,3,4-tetrahydro-3λ*6*-thia-2,4,5-triaza-phenanthren-1-yl)-benzoic acid] |
| 0.91 µM | CN(C)c1ccc2c(c1)-c1ccc3cccnc3c1NS2(=O)=O [Example 502, (6,6-Dioxo-5,6-dihydro-6λ*6*-thia-4,5-diaza-chrysen-9-yl)-dimethyl-amine] |
| 1.17 µM | O=S1(=O)Nc2c(ccc3cccnc23)-c2cc(OC(F)(F)F)ccc21 [Example 333, 9-Trifluoromethoxy-5H-6-thia-4,5-diaza-chrysene 6,6-dioxide] |
| 2.22 µM | CCC1c2ccc3cccnc3c2NS(=O)(=O)N1C (centres unmarked) [Example 412, 1-Ethyl-2-methyl-1,4-dihydro-2H-3-thia-2,4,5-triaza-phenanthrene 3,3-dioxide] |
| 2.9 µM | O=S1(=O)Nc2c(ccc3cccnc23)-c2ccccc21 [Example 2, 5H-6-Thia-4,5-diaza-chrysene 6,6-dioxide] |
| 0.307 µM | O=C(Nc1ccccc1S(=O)(=O)Nc1cccc2cccnc12)C(F)(F)F [Example 49, 2,2,2-Trifluoro-N-[2-(quinolin-8-ylsulfamoyl)-phenyl]-acetamide] |
| 1.75 µM | COc1cc(NS(=O)(=O)c2ccc(Cl)cc2F)c2ncccc2c1 [Example 57, 4-Chloro-2-fluoro-N-(6-methoxy-quinolin-8-yl)-benzenesulfonamide] |
| 3.69 µM | O=S(=O)(Nc1cccc2cccnc12)c1ccc(C(F)(F)F)nc1 [Example 89, 6-Trifluoromethyl-pyridine-3-sulfonic acid quinolin-8-ylamide] |
| 1.42 µM | COC(=O)c1cccc(S(=O)(=O)Nc2cccc3cccnc23)c1 [Example 40, 3-(Quinolin-8-ylsulfamoyl)-benzoic acid methyl ester] |
| 1.14 µM | O=S1(=O)Nc2c(cc(N3CCOCC3)c3cccnc23)-c2ccccc21 [Example 549, 12-Morpholin-4-yl-5H-6-thia-4,5-diaza-chrysene 6,6-dioxide] |
| 0.25 µM | CC(=O)c1cc2c(c3ncccc13)NS(=O)(=O)N(C)C2c1ccc(F)cc1 (centres unmarked) [Example 402, 1-[1-(4-Fluoro-phenyl)-2-methyl-3,3-dioxo-1,2,3,4-tetrahydro-3λ*6*-thia-2,4,5-triaza-phenanthren-9-yl]-ethanone] |
| 2.06 µM | O=S(=O)(Nc1cccc2cccnc12)c1cnc2ccccc2c1 [Example 88, Quinoline-3-sulfonic acid quinolin-8-ylamide] |
| 2.83 µM | N#Cc1ccc2c(c1)-c1ccc3cccnc3c1NS2(=O)=O [Example 308, 6,6-Dioxo-5,6-dihydro-6λ*6*-thia-4,5-diaza-chrysene-9-carbonitrile] |

| IC50 | SMILES |
| --- | --- |
| 3.64 µM | O=S(=O)(Nc1cccc2cccnc12)c1cccnc1 [Example 33, Pyridine-3-sulfonic acid quinolin-8-ylamide] |
| 0.72 µM | O=S(=O)(Nc1cccc2cccnc12)c1cccc(C(F)(F)F)c1 [Example 44, N-Quinolin-8-yl-3-trifluoromethyl-benzenesulfonamide] |
| 39.5 µM | O=S1(=O)NCc2ccc3cccnc3c2N1 [Example 114, 1,4-Dihydro-2H-3-thia-2,4,5-triaza-phenanthrene 3,3-dioxide] |
| 1 µM | COc1cc(NS(=O)(=O)c2ccc(C(F)(F)F)cc2N)c2ncccc2c1 [Example 65, 2-Amino-N-(6-methoxy-quinolin-8-yl)-4-trifluoromethyl-benzenesulfonamide] |
| 2.37 µM | O=S(=O)(Nc1cc(F)cc2cccnc12)c1ccccn1 [Example 236, Pyridine-2-sulfonic acid (6-fluoro-quinolin-8-yl)-amide] |
| 1.38 µM | O=S(=O)(Nc1ccc(Cl)c2cccnc12)c1ccc(Cl)cc1F [Example 54, 4-Chloro-N-(5-chloro-quinolin-8-yl)-2-fluoro-benzenesulfonamide] |
| 3.25 µM | O=S(=O)(Nc1cccc2cccnc12)Oc1ccccc1 [Example 70, Quinolin-8-yl-sulfamic acid phenyl ester] |
| 1.37 µM | CN1C(c2ccc(C(F)(F)F)cc2)c2ccc3cccnc3c2NS1(=O)=O (centres unmarked) [Example 385, 2-Methyl-1-(4-trifluoromethyl-phenyl)-1,4-dihydro-2H-3-thia-2,4,5-triaza-phenanthrene 3,3-dioxide] |
| 1.5 µM | Cc1c(F)cccc1S(=O)(=O)Nc1cccc2cccnc12 [Example 83, 3-Fluoro-2-methyl-N-quinolin-8-yl-benzenesulfonamide] |
| 0.599 µM | Cc1cc2c(c3ncccc13)NS(=O)(=O)c1ccccc1-2 [Example 107, 12-Methyl-5H-6-thia-4,5-diaza-chrysene 6,6-dioxide] |
| 7.09 µM | O=S(=O)(Nc1cccc2cccnc12)c1cccc(Cl)c1Cl [Example 67, 2,3-Dichloro-N-quinolin-8-yl-benzenesulfonamide] |
| 8.51 µM | O=S1(=O)Nc2c(cc(C(F)(F)F)c3cccnc23)-c2cc(Cl)ccc21 [Example 312, 9-Chloro-12-trifluoromethyl-5H-6-thia-4,5-diaza-chrysene 6,6-dioxide] |
| 4.02 µM | Cc1cc2c(cc1C)S(=O)(=O)Nc1c-2ccc2cccnc12 [Example 104, 8,9-Dimethyl-5H-6-thia-4,5-diaza-chrysene 6,6-dioxide] |
| 24.6 µM | CC(C)C(=O)Nc1ccccc1S(=O)(=O)Nc1cccc2cccnc12 [Example 48, N-[2-(Quinolin-8-ylsulfamoyl)-phenyl]-isobutyramide] |
| 1.58 µM | COc1ccc2c(c1)-c1ccc3cccnc3c1NS2(=O)=O [Example 105, 9-Methoxy-5H-6-thia-4,5-diaza-chrysene 6,6-dioxide] |
| 0.42 µM | O=S1(=O)Nc2c(cc(Cl)c3cccnc23)-c2cc(OC3CCCC3)ccc21 [Example 514, 12-Chloro-9-cyclopentyloxy-5H-6-thia-4,5-diaza-chrysene 6,6-dioxide] |
| 0.99 µM | O=C(OC1CCCC1)c1ccc2c(c1)-c1cc(Cl)c3cccnc3c1NS2(=O)=O [Example 533, 12-Chloro-6,6-dioxo-5,6-dihydro-6λ*6*-thia-4,5-diaza-chrysene-9-carboxylic acid cyclopentyl ester] |
